Experimental data: patent US20180139987A1, “PHARMACEUTICAL POWDER COMPOSITION AND ITS USE IN THE CONTROL OF POST-PRANDIAL GLYCAEMIC PROFILE” (OMNIBLEND INNOVATION PTY LTD, priority 2015, published 2018)

What was measured:
[1] = system: subject with type 2 diabetes; assay: Post-prandial glycemic profile (finger-prick blood sugar) after white bread breakfast, subjects with type 2 diabetes; type: in vivo, human
Description: 2 slices of thick-cut savoury white bread spread with 29 g jam (over both slices) were eaten together with a cup of tea or coffee. A total available carbohydrate per serve was 50 g. 2 slices of thick-cut savoury white bread spread with 29 g jam (over both slices) were eaten together with a cup of tea or coffee. […] A total available carbohydrate per serve was 50 g. Finger-prick blood sugar readings were taken before consumption of the standard meal in the morning (i.e. the standard meal was breakfast). Two readings were taken and the average value was used as the blood sugar reading. After consumption of the meal, another blood sugar reading was taken. Further blood sugar readings were taken at 15-minute intervals thereafter. […] This was the first glycemic test profile. […] This was the second glycemic test profile. […] This was the first test glycemic profile. […] This was the second glycemic test profile.

patients = settings: 1255 patients, Acarbose tablets 50-300 mg t.i.d.; cited from earlier work
Healthy Participant = assay: Post-prandial glycemic profile (finger-prick blood sugar) after white rice breakfast, healthy participant; type: in vivo, human; settings: HP2 healthy participant, 125 g white rice
Description: 125 g microwaveable white rice (details, amount of available carbohydrate?) was eaten together with a cup of water. Finger-prick blood sugar readings were taken before consumption of the standard meal in the morning (i.e. the standard meal was breakfast). Two readings were taken and the average value was used as the blood sugar reading. After consumption of the meal, another blood sugar reading was taken. Further blood sugar readings were taken at 15-minute intervals thereafter. A subject (HP2, Healthy Participant) was given a standard white rice breakfast, containing 125 g cooked white rice (example A3), and was tested for post-prandial glycemic profile-this was the first control glycemic profile. […] This was the third control glycemic profile. On another day, the same subject was given the acarbose-containing pre-meal drink described in example A1 (this drink is prepared according to the invention). This was the test glycemicsrofile.

[2] = system: subject with type 2 diabetes; assay: Post-prandial glycemic profile (finger-prick blood sugar) after white rice breakfast, subjects with type 2 diabetes; type: in vivo, human
Experimental: 160 g microwaveable white rice (details, amount of available carbohydrate?) was eaten together with a cup of water.
240 g microwaveable white rice (Uncle Bens Brand Microwavable White Rice, […] of available carbohydrate) and 200 ml of hot tea.
Finger-prick blood sugar readings were taken before consumption of the standard meal in the morning (i.e. the standard meal was breakfast). Two readings were taken and the average value was used as the blood sugar reading. After consumption of the meal, another blood sugar reading was taken. Further blood sugar readings were taken at 15-minute intervals thereafter.
A subject with type 2 diabetes (T2D1, person) was given a standard white rice breakfast (Example A2) and was tested for post-prandial glycemic profile—this was the first control glycemic profile. […] This was the third control glycemic profile. […] This was the test glycemic profile. […]
A subject with type 2 diabetes (T2D5, person) was given a standard white rice breakfast (Example A2) and was tested for post-prandial glycemic profile—this was the first control glycemic profile. […] This was the third control glycemic profile. […] This was the test glycemic profile.
This was the second glycemic test profile.
This was the second test glycemic profile.
This was the first glycemic test profile.

## C[C@H]1O[C@H](O[C@H]2[C@H](O)[C@@H](O)[C@@H](O[C@H]3[C@H](O)[C@@H](O)C(O)O[C@@H]3CO)O[C@@H]2CO)[C@H](O)[C@@H](O)[C@@H]1N[C@H]1C=C(CO)[C@@H](O)[C@H](O)[C@H]1O (stereo partly shown) [acarbose]
[1]; T2D5, 2 slices white bread + 29 g jam (Example B4), time after eating 0 min
  glycemic profile (mM blood glucose): 8.5 mM
[1]; T2D5, 2 slices white bread + 29 g jam (Example B4), time after eating 15 min
  glycemic profile (mM blood glucose): 9.3 mM
[1]; T2D5, 2 slices white bread + 29 g jam (Example B4), time after eating 30 min
  glycemic profile (mM blood glucose): 9.5 mM
[1]; T2D5, 2 slices white bread + 29 g jam (Example B4), time after eating 45 min
  glycemic profile (mM blood glucose): 9.65 mM
[1]; T2D5, 2 slices white bread + 29 g jam (Example B4), time after eating 60 min
  glycemic profile (mM blood glucose): 9.85 mM
[1]; T2D5, 2 slices white bread + 29 g jam (Example B4), time after eating 75 min
  glycemic profile (mM blood glucose): 9.6 mM
[1]; T2D5, 2 slices white bread + 29 g jam (Example B4), time after eating 90 min
  glycemic profile (mM blood glucose): 9.8 mM
[1]; T2D5, 2 slices white bread + 29 g jam (Example B4), time after eating 105 min
  glycemic profile (mM blood glucose): 9.35 mM
[1]; T2D5, 2 slices white bread + 29 g jam (Example B4), time after eating 120 min
  glycemic profile (mM blood glucose): 9.05 mM
[1]; T2D5, 2 slices white bread + 29 g jam (Example B4), time after eating 135 min
  glycemic profile (mM blood glucose): 7.65 mM
[1]; T2D5, 2 slices white bread + 29 g jam (Example B4), time after eating 150 min
  glycemic profile (mM blood glucose): 6.93 mM
[1]; T2D5, 2 slices white bread + 29 g jam (Example B4), time after eating 165 min
  glycemic profile (mM blood glucose): 6.55 mM
[1]; T2D5, 2 slices white bread + 29 g jam (Example B4), time after eating 180 min
  glycemic profile (mM blood glucose): 5.35 mM
[1]; T2D5, 2 slices white bread + 29 g jam (Example B4), time after eating −10 min
  glycemic profile (mM blood glucose): 6.5 mM
[1]; T2D5, 2 slices white bread + 29 g jam (Example B4), time after eating −25 min
  glycemic profile (mM blood glucose): 6.25 mM
[1]; T2D9, 2 slices white bread + 29 g jam (Example B5), time after eating 0 min
  glycemic profile (mM blood glucose): 11.8 mM
[1]; T2D9, 2 slices white bread + 29 g jam (Example B5), time after eating 15 min
  glycemic profile (mM blood glucose): 12.8 mM
[1]; T2D9, 2 slices white bread + 29 g jam (Example B5), time after eating 30 min
  glycemic profile (mM blood glucose): 11.6 mM
[1]; T2D9, 2 slices white bread + 29 g jam (Example B5), time after eating 45 min
  glycemic profile (mM blood glucose): 11.3 mM
[1]; T2D9, 2 slices white bread + 29 g jam (Example B5), time after eating 60 min
  glycemic profile (mM blood glucose): 11.4 mM
[1]; T2D9, 2 slices white bread + 29 g jam (Example B5), time after eating 75 min
  glycemic profile (mM blood glucose): 11.1 mM
[1]; T2D9, 2 slices white bread + 29 g jam (Example B5), time after eating 90 min
  glycemic profile (mM blood glucose): 10.4 mM
[1]; T2D9, 2 slices white bread + 29 g jam (Example B5), time after eating 105 min
  glycemic profile (mM blood glucose): 11.0 mM
[1]; T2D9, 2 slices white bread + 29 g jam (Example B5), time after eating 120 min
  glycemic profile (mM blood glucose): 11.8 mM
[1]; T2D9, 2 slices white bread + 29 g jam (Example B5), time after eating 135 min
  glycemic profile (mM blood glucose): 11.2 mM
[1]; T2D9, 2 slices white bread + 29 g jam (Example B5), time after eating 150 min
  glycemic profile (mM blood glucose): 11.8 mM
[1]; T2D9, 2 slices white bread + 29 g jam (Example B5), time after eating 165 min
  glycemic profile (mM blood glucose): 12.9 mM
[1]; T2D9, 2 slices white bread + 29 g jam (Example B5), time after eating 180 min
  glycemic profile (mM blood glucose): 10.2 mM
[1]; T2D9, 2 slices white bread + 29 g jam (Example B5), time after eating −10 min
  glycemic profile (mM blood glucose): 9.9 mM
[1]; T2D9, 2 slices white bread + 29 g jam (Example B5), time after eating −25 min
  glycemic profile (mM blood glucose): 10.4 mM
patients
  incidence of abdominal pain: 19%
  incidence of diarrhea: 31%
  incidence of flatulence: 74%
Healthy Participant; time after eating 0 min
  glycemic profile (mM blood glucose): 6.03 mM
Healthy Participant; time after eating 15 min
  glycemic profile (mM blood glucose): 6.4 mM
Healthy Participant; time after eating 30 min
  glycemic profile (mM blood glucose): 7.04 mM
Healthy Participant; time after eating 45 min
  glycemic profile (mM blood glucose): 6.75 mM
Healthy Participant; time after eating 60 min
  glycemic profile (mM blood glucose): 5.9 mM
Healthy Participant; time after eating 75 min
  glycemic profile (mM blood glucose): 6.1 mM
Healthy Participant; time after eating 90 min
  glycemic profile (mM blood glucose): 6.175 mM
Healthy Participant; time after eating 105 min
  glycemic profile (mM blood glucose): 5.8 mM
Healthy Participant; time after eating 120 min
  glycemic profile (mM blood glucose): 6.3 mM
Healthy Participant; time after eating 135 min
  glycemic profile (mM blood glucose): 6.23 mM
Healthy Participant; time after eating −15 min
  glycemic profile (mM blood glucose): 5.65 mM
[2]; T2D1, 240 g white rice (Example B3), time after eating 30 min
  glycemic profile (mM blood glucose): 9.32 mM
[2]; T2D1, 240 g white rice (Example B3), time after eating 60 min
  glycemic profile (mM blood glucose): 10.4 mM
[2]; T2D1, 240 g white rice (Example B3), time after eating 75 min
  glycemic profile (mM blood glucose): 11.0 mM
[2]; T2D1, 240 g white rice (Example B3), time after eating 90 min
  glycemic profile (mM blood glucose): 10.8 mM
[2]; T2D1, 240 g white rice (Example B3), time after eating 105 min
  glycemic profile (mM blood glucose): 11 mM
[2]; T2D1, 240 g white rice (Example B3), time after eating 120 min
  glycemic profile (mM blood glucose): 10.4 mM
[2]; T2D1, 240 g white rice (Example B3), time after eating 135 min
  glycemic profile (mM blood glucose): 10.4 mM
[2]; T2D1, 240 g white rice (Example B3), time after eating 165 min
  glycemic profile (mM blood glucose): 9.45 mM
[2]; T2D1, 240 g white rice (Example B3), time after eating 180 min
  glycemic profile (mM blood glucose): 9.66 mM
[2]; T2D1, 240 g white rice (Example B3), time after eating −25 min
  glycemic profile (mM blood glucose): 7.3 mM
[2]; T2D1, 240 g white rice (Example B7), time after eating 30 min
  glycemic profile (mM blood glucose): 9.32 mM
[2]; T2D1, 240 g white rice (Example B7), time after eating 60 min
  glycemic profile (mM blood glucose): 10.4 mM
[2]; T2D1, 240 g white rice (Example B7), time after eating 75 min
  glycemic profile (mM blood glucose): 11.0 mM
[2]; T2D1, 240 g white rice (Example B7), time after eating 90 min
  glycemic profile (mM blood glucose): 10.8 mM
[2]; T2D1, 240 g white rice (Example B7), time after eating 105 min
  glycemic profile (mM blood glucose): 11 mM
[2]; T2D1, 240 g white rice (Example B7), time after eating 120 min
  glycemic profile (mM blood glucose): 10.4 mM
[2]; T2D1, 240 g white rice (Example B7), time after eating 135 min
  glycemic profile (mM blood glucose): 10.4 mM
[2]; T2D1, 240 g white rice (Example B7), time after eating 165 min
  glycemic profile (mM blood glucose): 9.45 mM
[2]; T2D1, 240 g white rice (Example B7), time after eating 180 min
  glycemic profile (mM blood glucose): 9.66 mM
[2]; T2D1, 240 g white rice (Example B7), time after eating −25 min
  glycemic profile (mM blood glucose): 7.3 mM
[2]; T2D1, standard white rice breakfast (Example A2, 160 g), time after eating 45 min
  glycemic profile (mM blood glucose): 9.6 mM
[2]; T2D1, standard white rice breakfast (Example A2, 160 g), time after eating 60 min
  glycemic profile (mM blood glucose): 9.8 mM
[2]; T2D1, standard white rice breakfast (Example A2, 160 g), time after eating 75 min
  glycemic profile (mM blood glucose): 9.6 mM
[2]; T2D1, standard white rice breakfast (Example A2, 160 g), time after eating 90 min
  glycemic profile (mM blood glucose): 10.9 mM
[2]; T2D1, standard white rice breakfast (Example A2, 160 g), time after eating 105 min
  glycemic profile (mM blood glucose): 9.65 mM
[2]; T2D1, standard white rice breakfast (Example A2, 160 g), time after eating 120 min
  glycemic profile (mM blood glucose): 10.25 mM
[2]; T2D1, standard white rice breakfast (Example A2, 160 g), time after eating 135 min
  glycemic profile (mM blood glucose): 9.82 mM
[2]; T2D1, standard white rice breakfast (Example A2, 160 g), time after eating 150 min
  glycemic profile (mM blood glucose): 9.26 mM
[2]; T2D5, 240 g white rice (Example B2), time after eating 0 min
  glycemic profile (mM blood glucose): 7.4 mM
[2]; T2D5, 240 g white rice (Example B2), time after eating 30 min
  glycemic profile (mM blood glucose): 10.4 mM
[2]; T2D5, 240 g white rice (Example B2), time after eating 45 min
  glycemic profile (mM blood glucose): 10.1 mM
[2]; T2D5, 240 g white rice (Example B2), time after eating 60 min
  glycemic profile (mM blood glucose): 9.7 mM
[2]; T2D5, 240 g white rice (Example B2), time after eating 75 min
  glycemic profile (mM blood glucose): 9.95 mM
[2]; T2D5, 240 g white rice (Example B2), time after eating 165 min
  glycemic profile (mM blood glucose): 7.3 mM
[2]; T2D5, 240 g white rice (Example B2), time after eating 180 min
  glycemic profile (mM blood glucose): 6.5 mM
[2]; T2D5, 240 g white rice (Example B2), time after eating −10 min
  glycemic profile (mM blood glucose): 5.2 mM
[2]; T2D5, 240 g white rice (Example B2), time after eating −25 min
  glycemic profile (mM blood glucose): 5 mM
[2]; T2D5, 240 g white rice (Example B6), time after eating 0 min
  glycemic profile (mM blood glucose): 7.4 mM
[2]; T2D5, 240 g white rice (Example B6), time after eating 30 min
  glycemic profile (mM blood glucose): 10.4 mM
[2]; T2D5, 240 g white rice (Example B6), time after eating 45 min
  glycemic profile (mM blood glucose): 10.15 mM
[2]; T2D5, 240 g white rice (Example B6), time after eating 60 min
  glycemic profile (mM blood glucose): 9.76 mM
[2]; T2D5, 240 g white rice (Example B6), time after eating 75 min
  glycemic profile (mM blood glucose): 9.95 mM
[2]; T2D5, 240 g white rice (Example B6), time after eating 165 min
  glycemic profile (mM blood glucose): 7.3 mM
[2]; T2D5, 240 g white rice (Example B6), time after eating 180 min
  glycemic profile (mM blood glucose): 6.5 mM
[2]; T2D5, 240 g white rice (Example B6), time after eating −10 min
  glycemic profile (mM blood glucose): 5.2 mM
[2]; T2D5, 240 g white rice (Example B6), time after eating −25 min
  glycemic profile (mM blood glucose): 5 mM
[2]; T2D5, 240 g white rice, baselines of both profiles matched
  peak glucose height, rise above baseline: 5.3 mmol/L
